Four compounds from patent US9125416B2, “Pesticidal mixtures” (BASF SE, priority 2010, dated 2015) can be followed below.

Common to all, as to format: in vivo
Assay [1] relates to green peach aphid (Myzus persicae). Briefly: Test 2: Control of Green Peach Aphid, liquid artificial diet under artificial membrane, 96-well-microtiter plates. The settings on record: aphid mortality and fecundity after 3 days.
For assay [2], the system named is vetch aphid (Megoura viciae). Briefly: Test 1: Control of Vetch Aphid, broad bean leaf disks in 24-well-microtiter plates. The note with it: sprayed on leaf disks, aphid mortality and fecundity after 5 days.
For assay [3], the system named is boll weevil (Anthonomus grandis). Briefly: Test 3: Control of Boll Weevil, insect diet with A. grandis eggs, 24-well-microtiter plates. The note with it: sprayed onto insect diet, egg and larval mortality after 5 days.

Regarding `Cc1c(COC(=O)[C@@H]2[C@H](/C=C(\Cl)C(F)(F)F)C2(C)C)cccc1-c1ccccc1` (racemic) [Bifenthrin, bifenthrin], the “Oberved Control average” value in assay [1] (0.08 ppm in aphid diet) and in assay [2] (2 ppm) was 0% throughout.
Take abamectin: in assay [1] (0.016 ppm in aphid diet), the “Oberved Control average” value amounted to 0%.
Regarding `C[C@]1(COC(=O)C2CC2)[C@@H]2C[C@H](O)[C@@]3(C)Oc4cc(-c5cccnc5)oc(=O)c4[C@H](O)[C@@H]3[C@@]2(C)CC[C@@H]1OC(=O)C1CC1` [Compound I, [(3S,4R,4aR,6S,6aS,12R,12aS,12bS)-3-(cyclopropanecarbonyloxy)-6,12-dihydroxy-4,6a,12b-trimethyl-11-oxo-9-(pyridin-3-yl)-1,2,3,4,4a,5,6,6a,12a,12b-decahydro-11H,12H-benzo[f]pyrano[4,3-b]chromen-4-yl]methyl cyclopropanecarboxylate], the “Oberved Control average” value in assay [3] (0.02 ppm) was found to be 0%; in assay [1] (0.004 ppm in aphid diet), 0%; in assay [2] (0.004 ppm), 25%.
In the case of `O=C1C=C(N(CCF)Cc2ccc(Cl)nc2)CO1` [Compound M26.4, 4-{[(6-chloropyrid-3-yl)methyl](2-fluoroethyl)amino}furan-2(5H)-on], in assay [3] (2 ppm), the “Oberved Control average” value is reported as 0%.
